Reference: article PMC7932537, “Quantitative profiling of protease specificity” (PLoS Computational Biology, 2021)

Key:
MMP-2 = target: T1, MMP-2 (Homo sapiens, UniProt P08253); assay: K(obs) of individual phage substrates (set of 1369); format: biochemical; conditions: MMP2
T1 sequence (P08253 110-660): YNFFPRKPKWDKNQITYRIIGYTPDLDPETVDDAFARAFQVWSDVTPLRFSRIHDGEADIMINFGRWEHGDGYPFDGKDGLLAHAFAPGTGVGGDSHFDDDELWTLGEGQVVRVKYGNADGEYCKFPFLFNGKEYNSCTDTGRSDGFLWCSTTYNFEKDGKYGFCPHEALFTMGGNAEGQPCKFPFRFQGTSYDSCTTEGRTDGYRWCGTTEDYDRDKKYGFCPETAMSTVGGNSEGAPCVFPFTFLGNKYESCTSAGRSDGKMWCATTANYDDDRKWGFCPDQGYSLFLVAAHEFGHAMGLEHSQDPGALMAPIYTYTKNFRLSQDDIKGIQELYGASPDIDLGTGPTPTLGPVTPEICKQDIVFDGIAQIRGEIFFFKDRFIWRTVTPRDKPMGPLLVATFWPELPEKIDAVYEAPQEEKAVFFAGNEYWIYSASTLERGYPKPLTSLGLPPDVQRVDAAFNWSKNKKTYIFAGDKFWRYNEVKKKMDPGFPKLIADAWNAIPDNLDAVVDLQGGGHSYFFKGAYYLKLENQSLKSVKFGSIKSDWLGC

MMP-9 = MMP-9 (Homo sapiens, UniProt P14780); assay: as above; format: biochemical; conditions: MMP9, individual phage substrates, set of 1369 peptides
[1] = individual phage substrates, set of 1369 peptides, cleavage position marked by '-' in the sequence
[2] = '-' marks the cleavage position (P1-P1')
[3] = individual phage substrate from the set of 1369 peptides, cleavage position marked by the dash in the sequence
[4] = dash in sequence marks cleavage position

Sequence of MMP-9 (P14780 94-707): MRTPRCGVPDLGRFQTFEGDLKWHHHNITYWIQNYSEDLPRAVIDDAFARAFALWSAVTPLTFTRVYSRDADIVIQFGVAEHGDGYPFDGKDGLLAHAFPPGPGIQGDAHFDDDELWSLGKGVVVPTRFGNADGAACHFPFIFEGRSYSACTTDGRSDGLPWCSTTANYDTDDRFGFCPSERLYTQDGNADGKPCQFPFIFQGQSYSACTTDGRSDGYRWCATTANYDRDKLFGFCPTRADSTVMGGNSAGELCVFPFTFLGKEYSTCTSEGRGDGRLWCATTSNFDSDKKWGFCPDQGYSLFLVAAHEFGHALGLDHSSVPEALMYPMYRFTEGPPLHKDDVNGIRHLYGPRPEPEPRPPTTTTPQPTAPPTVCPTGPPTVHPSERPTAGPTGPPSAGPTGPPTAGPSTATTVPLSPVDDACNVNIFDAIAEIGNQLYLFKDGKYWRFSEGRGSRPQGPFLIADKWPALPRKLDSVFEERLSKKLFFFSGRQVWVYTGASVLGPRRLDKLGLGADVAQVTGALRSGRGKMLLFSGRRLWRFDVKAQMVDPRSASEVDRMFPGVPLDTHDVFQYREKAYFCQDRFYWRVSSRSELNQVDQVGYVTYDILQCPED

Substance	Kobs (MMP-2; [1]) [M⁻¹ s⁻¹]	Kobs (MMP-9; [2]) [M⁻¹ s⁻¹]	Kobs (MMP-2; [3]) [M⁻¹ s⁻¹]	Kobs (MMP-9; [4]) [M⁻¹ s⁻¹]
SGIWK-LTATA	0	386.839		
VMHQN-LTASG			8941.32	171.876
GQPAH-LSTAS			10866.7	2761.81
SKIRF-LTASG			5269.78	9740.44
SGPLS-QSTTA	1561.44	7815.03		
GVAGA-LYTAS	2097.28	0		
VNVRN-LTASG			12792.1	5269.78
SGPKQ-LTRTA	0	1465.65		
TWAKM-LTASG			0	292.668
SGPHL-LIRTA	0	386.839		
GRAQN-LLTAS	484.315	1071.29		
VHAVW-LTASG	12792.1	12792.1		
GHAHH-LYTAS			171.876	201.585
GGSGF-LMSWM	12792.1	1112.44		
GLAVG-LRTAS	12792.1	4922.1		
RRVLA-LTASG			12792.1	12792.1
SGVRA-LISTA	12792.1	12792.1		
MVPHM-LTASG	12792.1	12792.1		
RTPLM-LTASG	12792.1	12792.1		
YNVNY-LTASG			3964.21	201.585
SGGSG-LRMWI	484.315	1239.69		
ELPNF-LTASG	951.362	231.616		
LPALN-MTASG	1513.13	4335.13		
SGWAS-MRLTA	0	142.481		
SGVFN-LAFTA	912.511	201.585		
DLPHC-LTASG			619.843	355.093

Substance	Kobs (MMP-2; [1]) [M⁻¹ s⁻¹]	Kobs (MMP-9; [2]) [M⁻¹ s⁻¹]	Kobs (MMP-2; [3]) [M⁻¹ s⁻¹]	Kobs (MMP-9; [4]) [M⁻¹ s⁻¹]
EHNLP-LTASG	799.117	0		
YKAFT-MTASG			113.394	386.839
GSPLS-WRTAS	7815.03	6396.07		
GGSGR-LKWNL			551.253	690.17
GRLGC-LKTAS	1112.44	113.394		
VDHAH-LTASG	5269.78	0		
TTALW-LTASG			6131.32	4922.1
GWVGH-LSTAS			10866.7	386.839
SRVLP-LTASG			4613.14	1711.63
QSPVQ-LTASG	12792.1	4205.91		
SGVAP-LILTA	0	142.481		
SGLYG-LTLTA	762.325	201.585		
GGSGS-LSVWK			0	0
GSGNS-LKRRT			142.481	0
SRPRM-LTASG			7815.03	8321.48
MKPVN-LTASG	12792.1	12792.1		
SVARN-LTASG	10866.7	4205.91		
TKVLW-LTASG	4763.33	10866.7		
ISPAT-LTASG	12792.1	12792.1		
SGAYH-LQQTA	0	762.325		
WLAQA-LTASG	12792.1	7815.03		
VFALN-LTASG	12792.1	12792.1		
SGALG-LLETA	171.876	171.876		
RNLAS-LTASG	7815.03	142.481		
SPALD-MTASG			0	231.616
